Test results from patent publication US20040248919A1, “Fluorinated trienes and their use as rxr modulators” (priority 2001, published 2004).

Columns and labels:
[1] = system: transgenic mice carrying the human apo A-I gene; assay: Transgenic mice carrying the human apo A-I gene; type: in vivo; settings: transgenic mouse model
Description: Mice transgenic for the human apolipoprotein A-I gene (obtained from Jackson Laboratory) are used to evaluate PPARγ mediated effects on high density lipoprotein (HDL) cholesterol. The mice are handled as described above for db/db mice, except that they are fed Purina 5001.

rodent models of NIDDM = assay: Rodent models of NIDDM; type: in vivo
Description: Rodents that are genetically defective in the leptin pathway are commonly used as animal models of non-insulin dependant diabetes mellitus (NIDDM). db/db mice and ZDF rats develop frank diabetes that progresses to include β-cell failure and the accompanying precipitous drop in plasma insulin levels. […] All three rodent models were used to examine the efficacy of oral dosing with compounds of the invention on diabetes, insulin sensitivity, food consumption and body weight gain.
Mice (obtained from Jackson Laboratory), ZDF rats (obtained from Genetic Models Inc.) and fa/fa rats (obtained from either Charles River, or Harlan) are maintained on 12-hour light/dark cycle. Mice (age 28-42 days) are caged in groups of 5-6. Rats (age 7 weeks) are housed individually. All animals are allowed ad libitum access to water and food (Purina 5015 for mice and 5008 for rats). Compounds are administered at the specified doses by oral gavage on the morning of each day of any experiment. Blood samples are obtained 3 hours after dosing from fed animals under anesthesia and collected into heparinized capillary tubes from the tail vein.

db/db mice = assay: db/db mice, oral dosing; type: in vivo, mouse; settings: 7 week old db/db mice, 300 mg/kg by daily oral gavage

`Cc1cc2c(cc1C1(c3ccc(C(=O)O)cn3)CC1)C(C)(C)CCC2(C)C` [LG100268, 6-[1-(3,5,5,8,8-pentamethyl-5,6,7,8-tetrahydronaphthalen-2-yl)cyclopropyl]nicotinic acid] was tested, and the Triglycerides [1] was “raises triglycerides”, the Blood glucose levels (rodent models of NIDDM) was “lower blood glucose levels” and the Thyroid hormone axis (rodent models of NIDDM) was “suppress the thyroid hormone axis”. The Triglycerides (rodent models of NIDDM) was “raise triglycerides”.

In the case of `CN(C)C(=N)N=C(N)N` [metformin], the Plasma glucose (db/db mice) is reported as “lowers plasma glucose”.
